Usually half-life stands for the time needed for the level to fall by half in the phase considered.

The source of these data is publication PMC8992272, “Stabilities of Three Key Biological Trisulfides with Implications for Their Roles in the Release of Hydrogen Sulfide and Bioaccumulation of Sulfane Sulfur” (ACS Omega, 2022).

Each structure is given as a SMILES string. Where two headings read alike, the source gives them in different places. A value given as a limit tells only on which side of the number the result lay.

What all share (format): physicochemical
A short description of series [1]: Stability in D2O in the presence of butylamine or triethylamine, tracked by 1H NMR. As for the experimental part: N-Acetylcysteine trisulfide (26.5 mg, 66 μmol) was dissolved in 600 μL of D2O. Butylamine (5.0 mg, 68 μmol) was added, and the ^1H NMR spectra were taken periodically to track degradation.
N-Acetylcysteine trisulfide (26.5 mg, 66 μmol) was dissolved in 600 μL of D2O. Triethylamine (8.0 mg, 79 μmol) was added, and the ^1H NMR spectra were taken periodically to track degradation.
Cysteine trisulfide (5.5 mg, 20 μmol) was added to 600 μL of D2O. The solution was filtered to remove undissolved particles. […] The ^1H NMR spectra were taken periodically to track degradation.
Cysteine trisulfide (4.3 mg, 16 μmol) was added to 600 μL of D2O. The solution was filtered to remove undissolved particles. […] The ^1H NMR spectra were taken periodically to track degradation.
N-Acetylcysteine tetrasulfide (17.2 mg, 44 μmol) was dissolved in 600 μL of D2O. Butylamine (9.9 mg, 135 μmol) was added, and the ^1H NMR spectra were taken periodically to track degradation.
N-Acetylcysteine tetrasulfide (17.2 mg, 44 μmol) was dissolved in 600 μL of D2O. Triethylamine (13.5 mg, 135 μmol) was added, and the ^1H NMR spectra were taken periodically to track degradation.

The nature of series [2]: Stability in the presence of acetonitrile, benzamide, zinc sulfate or iron sulfate, or in methanol-d4 (1H NMR). How it is done:
N-Acetylcysteine trisulfide (26.5 mg, 66 μmol) was dissolved in 600 μL of D2O. Acetonitrile (3.0 mg, 73 μmol) was added, and the ^1H NMR spectra were taken periodically to track degradation.
N-Acetylcysteine trisulfide (31.4 mg, 78 μmol) was dissolved in 600 μL of D2O. Benzamide (9.4 mg, 78 μmol) was added, and the ^1H NMR spectra were taken periodically to track degradation.
N-Acetylcysteine trisulfide (15.0 mg, 38 μmol) was dissolved in 600 μL of D2O. ZnSO4 (11.8 mg, 73 μmol) was added, and the ^1H NMR spectra were taken periodically to track degradation.
N-Acetylcysteine trisulfide (15.0 mg, 38 μmol) was dissolved in 600 μL of D2O. FeSO4·7H2O (11.6 mg, 41 μmol) was added, and the ^1H NMR spectra were taken periodically to track degradation.
N-Acetylcysteine trisulfide (32.1 mg, 80 μmol) was dissolved in 600 μL of CD3OD. The ^1H NMR spectra were taken periodically to track degradation.
Cysteine trisulfide (5.1 mg, 19 μmol) was added to 600 μL of D2O. Solution was filtered to remove undissolved particles. […] The ^1H NMR spectra were taken periodically to track degradation.
Cysteine trisulfide (6.8 mg, 25 μmol) was added to 600 μL of D2O. Solution was filtered to remove undissolved particles. […] The ^1H NMR spectra were taken periodically to track degradation.

A short description of series [3]: Stability in nonbuffered D2O at room and elevated temperature (1H NMR). How it is done:
N-Acetylcysteine trisulfide (24.3 mg, 61 μmol) was dissolved in 500 μL of D2O and placed in a 40 °C oil bath. The ^1H NMR spectra were taken periodically to track degradation.
N-Acetylcysteine trisulfide (24.3 mg, 61 μmol) was dissolved in 500 μL of D2O and placed in a 60 °C oil bath. The ^1H NMR spectra were taken periodically to track degradation.
N-Acetylcysteine tetrasulfide (8.0 mg, 21 μmol) was dissolved in 600 μL of D2O. The ^1H NMR spectra were taken periodically to track degradation.
N-Acetylcysteine tetrasulfide (10.0 mg, 26 μmol) was dissolved in 600 μL of D2O and placed in a 40 °C oil bath. The ^1H NMR spectra were taken periodically to track degradation.

The nature of series [4]: Kinetics of degradation of trisulfides in the presence of a thiol (1H NMR). The note with it: water, NAC added, vial uncapped to allow H2S to evaporate, after 1 day. As for the experimental part:
To investigate the rate of reaction of trisulfides with an added thiol and to characterize the degradation products, 5 mM trisulfides of cysteine, glutathione, and NAC were separately added to […] For instance, 5 equiv of cysteine was added to cysteine trisulfide and 5 equiv of NAC was added to NAC trisulfide. The pH was buffered to a pH of 7.0 to ensure that each trisulfide was soluble and to closely mimic in vivo pH.
Cysteine trisulfide (0.7 mg, 2.6 μmol) was dissolved in 500 μL of D2O buffered to pH 7.0, yielding a 5 mM solution. Cysteine (1.5 mg, 12.4 μmol) was added, and the ^1H NMR spectra were periodically obtained to track degradation.
Glutathione trisulfide (1.6 mg, 2.6 μmol) was added to 500 μL of D2O buffered to a pH of 7.0, yielding a 5 mM solution. Glutathione (3.8 mg, 12.4 μmol) was added, and the ^1H NMR spectra were obtained periodically to track degradation.
N-Acetylcysteine trisulfide (1.0 mg, 2.6 μmol) was dissolved in 500 μL of D2O buffered to pH 7.0, yielding a 5 mM solution. N-Acetylcysteine (2.1 mg, 12.4 μmol) was added, and the ^1H NMR spectra were obtained periodically to track degradation.
Cysteine trisulfide (0.7 mg, 2.6 μmol) was dissolved in 500 μL of D2O buffered to pH 7.0, yielding a 5 mM solution. tert-Butanol (0.8 μL, 2.6 μmol) was added as an internal standard. […]

Regarding `CC(=O)N[C@@H](CSSSC[C@H](NC(C)=O)C(=O)O)C(=O)O` [NAC trisulfide, N-Acetylcysteine Trisulfide], the degraded in series [1] (1 equiv butylamine, D2O, after 1 h) is listed as 43%; in series [1] (1 equiv butylamine, D2O, after 24 h), 92%; in series [1] (1 equiv triethylamine, D2O, after 1 h) it was 14%; in series [1] (1 equiv triethylamine, D2O, after 24 h), 87%; in series [3] (60 °C, in 3 days) it was 74%. Besides, the half-life in series [1] (D2O with butylamine, in the presence of butylamine (abstract), read-out: half-life) is 53 min; in series [1] (D2O with butylamine, in the presence of butylamine, D2O, early data points, read-out: estimated half-life of degradation (converted)), 56.4 min; in series [1] (D2O with triethylamine, in the presence of triethylamine, D2O, early data points, read-out: estimated half-life of degradation (converted)), 132 min. Also, the “time to reach equilibrium” value in series [1] (addition of butylamine or triethylamine) is “less than 5 h”. Moreover, the “tetrasulfide observed as product” value in series [1] (both reactions (butylamine, triethylamine), D2O) is on record as less than 3%. The degradation result was “No degradation” in series [2] (acetonitrile and benzamide added, D2O, after 8 days); “no observable degradation” in series [2] (methanol-d4, after 8 days); “No noticeable degradation” in series [3] (water, 40 °C oil bath, after 10 days). Also, the stability entry in series [2] (zinc sulfate and iron sulfate in D2O, 11 days) is on record as “stable”. In addition, the trisulfide remaining entry in series [4] is “no NAC trisulfide was observed”.
